One block for each molecule: values may come before it.
System: hESC-derived spheroid bodies (SBs), HAD-C102
Experiment: Real-time PCR of eye field, retinal progenitor and photoreceptor progenitor markers in SBs cultured with factor combinations
Type: cell-based, human
Protocol: SBs were generated under non-adherent conditions (day 0) from cord-feeder-conditioned media culture systems, or from feeder free laminin 521 culture systems, as described above. SBs were cultured in the following medium: […]® minus medium (Biological industries, Beit Haemek, Israel) supplemented with 50 U/ml penicillin and 50 μg/ml streptomycin (Gibco-BRL, Carlsbad, Calif.). In the initial 0 to 6 days of SBs culture (under non-adherent conditions), the medium was supplemented with 10 mM nicotinamide (Sigma, St. Louis, Mo.). It was further supplemented with the addition of the following factors in different combinations: 10 mM nicotinamide (Sigma, St. Louis, Mo.), 3 μM endo-IWR 1 (IWR1e; TOCRIS, a biotechne brand, Minneapolis, Minn.), 20 ng/ml bFGF (PeproTech Inc., Rocky Hill, N.J.), 5 ng/ml IGF1 (R&D Systems Inc., Minneapolis, Minn.) and 3 μM CHIR99021 (CHIR; PeproTech Inc., Rocky Hill, N.J.).
Real-time PCR was used to determine the expression of eye field and retinal progenitor markers and photoreceptor progenitor markers. mRNA was extracted using QUICK-RNA Micro Prep, Zymo Research (Cat #R1051) and the RT reaction was accomplished with QSCRIPT™ reverse transcriptase (Quanta BioScience Inc., Gaithersburg, Md.). The levels of transcripts were monitored using commercially available TAQMAN™ Assay-on-Demand Gene Expression Products (Applies Biosystems, Foster City, Calif.). The expression of eye field and photoreceptor precursor markers were analyzed at time points of 14 days to 8 weeks. At Time point 0 (TO), the derivation of SBs and the beginning of their culture in non-adherent culture dishes were initiated.
SBs were treated with combinations of NIC, bFGF, CHIR and IGF1 for 1 month. At the end of these culture periods, the expression of eye field and retinal progenitor markers (Rx, Six3, Six6, Chx10) and photoreceptor progenitor markers (NRL, CRX) was analyzed by Real-time PCR. […] FIG. 3 through FIG. 8 show graphs illustrating marker expression of Six3, Six6, Chx10, Rx, CRX, and NRL, respectively, in SBs cultured in NIC+bFGF or NIC+IGF or NIC+bFGF+CHIR for 4 weeks. Relative quantity of gene expression is plotted against different conditions. FIG. 9 through FIG. 14 show graphs illustrating marker expression of Six3, Six6, Chx10, Rx, CRX, and NRL, respectively, in SBs cultured in NIC+bFGF or NIC+bFGF+CHIR for 17 days. The control, HADC102, was comprised of undifferentiated HAD-C102 cells cultured for 6-7 days in […]® hPSC XF*Xeno-free medium for Human Pluripotent Stem Cells (Biological Industries).

expression of all the markers analyzed (Rx, Pax6, Six3, Six6, Chx10) (SBs from hESCs cultured on laminin 521 vs gelatin in cord feeder conditioned medium, NIH 5 weeks, FIG. 50-58): higher
efficiency of differentiation (initial culturing of hESC on laminin 521 vs gelatin in feeder cell conditioned medium): more efficient differentiation result
Molecule: Laminin 521: laminin 521 (BioLamina) coating for feeder-free culture of hESCs before SB formation

Molecule: NC(=O)c1cccnc1 [NIC, nicotinamide]
generation of photoreceptor cells from human pluripotent stem cells (evidenced by expression of markers of photoreceptor cells (RT-PCR)): sufficient to generate photoreceptor cells from human pluripotent stem cells

expression of the eye field and retinal progenitor markers Pax6, Rx, Six3, Six6 and Chx10 (compared among NIC+IWR1e, NIC, IWR1e, IWR1e+bFGF, FIG. 26-35): much lower
Molecule: O=C(Nc1cccc2cccnc12)c1ccc(N2C(=O)[C@@H]3[C@H](C2=O)[C@@H]2C=C[C@H]3C2)cc1 [IWR1e, 4-[(3aR,4S,7R,7aS)-1,3,3a,4,7,7a-hexahydro-1,3-dioxo-4,7-metha-no-2H-isoindol-2-yl]-N-8-quinolinyl-benzamide]
expression of markers of hESC-derived photoreceptor progenitors (SBs cultured 20 days, Pax6, Six3, Rx, Six6, Chx10, FIG. 21-25): induced the expression of markers of hESC-derived photoreceptor progenitors

— US12281328B2, “Photoreceptor cells for the treatment of retinal diseases” (Hadasit Medical Research Services and Development Ltd., priority 2017, dated 2025)
